Data from ChEMBL document CHEMBL1201862, “PubChem BioAssay data set” (2004).
Active and inactive are the calls of the source.

What was measured:
[1] = Shn3 3'UTR reporter inhibitors, dose response, cell-based, Clone20 osteoblasts, firefly luciferase, cherry-picked (AID 624132); type: functional;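 also: firefly luciferase luminescence from reporter carrying the Shn3 3'UTR in osteoblasts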
[2] = HepG2 cell cytotoxicity, dose response, cytotoxicity control for Shn3 inhibitor project, CellTiter-Glo, cherry-picked (AID 624134); type: functional, cell-based
[3] = control 3'UTR Renilla luciferase suppression, dose response, counter-screen for Shn3 inhibitor project, cell-based, Clone20-Shn3RL, cherry-picked (AID 624133); type: functional
[4] = biological target: T1, Calpain-2 catalytic subunit (Sus scrofa, UniProt P43367); test: pig calpain II inhibitor potency, dose response, biochemical, fluorogenic peptide substrate (AID 1420); type: functional
T1 sequence (P43367 whole entry): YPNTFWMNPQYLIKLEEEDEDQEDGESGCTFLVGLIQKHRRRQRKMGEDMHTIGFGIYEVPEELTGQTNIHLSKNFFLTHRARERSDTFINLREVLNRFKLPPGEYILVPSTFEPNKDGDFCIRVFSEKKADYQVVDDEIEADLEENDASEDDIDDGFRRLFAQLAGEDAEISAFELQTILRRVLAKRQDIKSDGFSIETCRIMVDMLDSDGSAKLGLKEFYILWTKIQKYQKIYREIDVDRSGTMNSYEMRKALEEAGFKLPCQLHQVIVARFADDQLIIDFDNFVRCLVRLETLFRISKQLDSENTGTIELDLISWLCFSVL

[5] = cells; type: functional
[6] = test system: HeLa; test: HeLa cell cytotoxicity, dose response, cytotoxicity control for MITF activator project, CellTiter-Glo luminescence, cherry-pick samples (AID 540259); type: functional, cell-based; details: Homo sapiens
[7] = biological target: Luciferin 4-monooxygenase (Photinus pyralis, UniProt P08659); test: firefly luciferase enzyme inhibitors, dose response, biochemical, luminescence (AID 1891)
[8] = Luminescence Cell-Based Dose Confirmation HTS to Identify Inhibitors of Platelet Dense Granule Release. [Related pubchem assays: 1663 (Primary HTS), 1678 (Summary of Project)]; type: functional
[9] = biological target: T2, Rac GTPase-activating protein 1 (Homo sapiens, UniProt Q9H0H5); test: MgcRacGAP GTPase-activating activity inhibitors, confirmation, biochemical, ADP Hunter fluorescence, primary and confirmatory (AID 624330); type: functional
T2 sequence (Q9H0H5 whole entry): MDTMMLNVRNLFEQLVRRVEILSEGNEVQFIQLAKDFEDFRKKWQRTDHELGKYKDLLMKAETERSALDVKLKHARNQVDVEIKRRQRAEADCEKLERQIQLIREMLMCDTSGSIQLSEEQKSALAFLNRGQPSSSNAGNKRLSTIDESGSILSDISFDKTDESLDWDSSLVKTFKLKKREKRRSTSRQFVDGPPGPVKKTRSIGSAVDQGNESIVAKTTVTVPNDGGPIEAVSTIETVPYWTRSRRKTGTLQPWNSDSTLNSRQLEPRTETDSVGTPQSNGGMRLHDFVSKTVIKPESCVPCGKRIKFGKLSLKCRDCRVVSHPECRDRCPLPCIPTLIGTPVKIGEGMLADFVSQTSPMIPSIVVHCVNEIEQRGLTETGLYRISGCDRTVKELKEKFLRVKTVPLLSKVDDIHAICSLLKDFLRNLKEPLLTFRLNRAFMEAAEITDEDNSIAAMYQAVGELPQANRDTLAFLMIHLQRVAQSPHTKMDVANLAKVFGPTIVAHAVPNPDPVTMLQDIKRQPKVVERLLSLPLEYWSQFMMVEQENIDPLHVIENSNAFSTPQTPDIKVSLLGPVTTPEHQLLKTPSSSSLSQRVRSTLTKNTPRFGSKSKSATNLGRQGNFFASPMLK

[10] = Luminescence Cell-Based Dose Retest to Confirm Inhibitors of Cancer Stem Cells. [Related pubchem assays (depositor defined):AID2717, AID2721]; type: functional; details: Homo sapiens
[11] = biological target: FAD-linked sulfhydryl oxidase ALR (Homo sapiens, UniProt P55789); test: inhibitors of human ALR sulfhydryl oxidase, dose response, biochemical, H2O2 detection, luminescence, cherry-pick (AID 493248)
[12] = biological target: Nonstructural protein 1 (Influenza A virus, UniProt Q194T2); type: functional, Influenza A virus (A/California/07/2009(H1N1))
[13] = biological target: T3, Carboxy-terminal domain RNA polymerase II polypeptide A small phosphatase 1 (Homo sapiens, UniProt Q9GZU7); test: inhibitors of CTDSP1, concentration-response testing, biochemical assay, absorbance-based, actives from ultra-high-throughput screening (AID 540297); type: functional
T3 sequence (Q9GZU7 whole entry): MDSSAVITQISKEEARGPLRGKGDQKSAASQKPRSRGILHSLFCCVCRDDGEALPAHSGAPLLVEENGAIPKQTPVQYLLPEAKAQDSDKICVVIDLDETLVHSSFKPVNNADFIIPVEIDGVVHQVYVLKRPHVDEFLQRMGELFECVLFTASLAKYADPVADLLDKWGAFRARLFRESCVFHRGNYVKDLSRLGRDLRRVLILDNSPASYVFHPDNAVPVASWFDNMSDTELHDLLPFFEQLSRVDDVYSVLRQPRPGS

[14] = biological target: Cytochrome P450 2C9 (Homo sapiens, UniProt P11712)
[15] = biological target: T4, Protein skinhead-1 (Caenorhabditis elegans, UniProt P34707); type: functional
T4 sequence (P34707 whole entry): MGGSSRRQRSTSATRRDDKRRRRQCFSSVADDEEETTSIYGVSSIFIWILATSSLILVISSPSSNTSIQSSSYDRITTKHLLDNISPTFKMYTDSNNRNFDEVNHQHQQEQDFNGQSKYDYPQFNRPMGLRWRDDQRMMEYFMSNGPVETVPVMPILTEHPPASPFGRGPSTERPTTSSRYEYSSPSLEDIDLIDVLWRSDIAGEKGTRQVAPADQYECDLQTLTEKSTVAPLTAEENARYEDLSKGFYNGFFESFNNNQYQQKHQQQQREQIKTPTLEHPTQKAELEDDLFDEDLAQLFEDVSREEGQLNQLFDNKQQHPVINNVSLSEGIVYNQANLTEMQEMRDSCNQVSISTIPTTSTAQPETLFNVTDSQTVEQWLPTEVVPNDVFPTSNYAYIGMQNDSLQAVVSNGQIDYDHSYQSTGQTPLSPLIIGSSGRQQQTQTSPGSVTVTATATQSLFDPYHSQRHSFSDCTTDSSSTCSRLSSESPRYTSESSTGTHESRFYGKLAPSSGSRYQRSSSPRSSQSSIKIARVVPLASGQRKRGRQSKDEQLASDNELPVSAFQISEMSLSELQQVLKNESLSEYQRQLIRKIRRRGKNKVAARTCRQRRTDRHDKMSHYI

[16] = microbe, parasite or virus in culture; type: functional; details: Mycobacterium tuberculosis
[17] = inhibitors of firefly luciferase expression or activity, dose response, H4 neuroglioma cells, luminescence (AID 1990); type: functional, cell-based
[18] = Luminescence Cell-Based Dose Response HTS to Identify Inhibitors of 5'UTR Stem-Loop Driven Prion Protein mRNA Translation in H4 Neuroglioblastoma Cells. [Related pubchem assays: 1827 (Project Summary), 1813 (Primary HTS)]; type: functional
[19] = inhibitors of SNCA 5'UTR-driven reporter translation, confirmation, H4 neuroglioma cells, luminescence (AID 1988); type: functional, cell-based
[20] = biological target: Genome polyprotein (dengue virus type 2, UniProt P29990); test: Dengue-2 NS5 methyltransferase inhibitors, primary screen, biochemical, confirmation dose response (AID 588689); type: functional
[21] = biological target: Paired box protein Pax-8 (Homo sapiens, UniProt Q06710); test: inhibitors of PAX8-driven TPO luciferase reporter, dose response, RMG-I cells, cherry-pick (AID 687027); type: functional, cell-based;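 also: luciferase reporter driven by Pax8 target thyroperoxidase promoter measured by SteadyGlo luminescence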
Sequence of Paired box protein Pax-8 (Q06710 whole entry): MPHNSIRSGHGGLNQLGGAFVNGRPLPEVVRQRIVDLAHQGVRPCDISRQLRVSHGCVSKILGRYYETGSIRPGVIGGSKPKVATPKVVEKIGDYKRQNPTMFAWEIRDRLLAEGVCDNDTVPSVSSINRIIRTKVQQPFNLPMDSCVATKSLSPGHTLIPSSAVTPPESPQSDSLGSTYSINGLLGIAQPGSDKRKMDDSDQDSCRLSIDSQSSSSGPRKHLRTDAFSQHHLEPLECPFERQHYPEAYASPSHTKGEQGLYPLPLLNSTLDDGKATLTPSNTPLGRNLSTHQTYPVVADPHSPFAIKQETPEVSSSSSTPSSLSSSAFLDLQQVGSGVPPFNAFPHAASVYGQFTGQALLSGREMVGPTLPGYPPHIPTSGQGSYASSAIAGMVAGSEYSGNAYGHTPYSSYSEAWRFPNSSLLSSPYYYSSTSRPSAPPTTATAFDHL

Sequence of Nonstructural protein 1 (Q194T2 whole entry, the tested form may be a part): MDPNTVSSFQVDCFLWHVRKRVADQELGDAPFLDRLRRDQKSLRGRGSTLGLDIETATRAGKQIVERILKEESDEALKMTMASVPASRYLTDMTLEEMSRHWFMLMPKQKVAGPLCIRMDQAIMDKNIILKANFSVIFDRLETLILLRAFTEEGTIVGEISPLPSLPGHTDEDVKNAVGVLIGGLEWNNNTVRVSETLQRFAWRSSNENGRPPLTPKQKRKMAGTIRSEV
Sequence of Cytochrome P450 2C9 (P11712 whole entry): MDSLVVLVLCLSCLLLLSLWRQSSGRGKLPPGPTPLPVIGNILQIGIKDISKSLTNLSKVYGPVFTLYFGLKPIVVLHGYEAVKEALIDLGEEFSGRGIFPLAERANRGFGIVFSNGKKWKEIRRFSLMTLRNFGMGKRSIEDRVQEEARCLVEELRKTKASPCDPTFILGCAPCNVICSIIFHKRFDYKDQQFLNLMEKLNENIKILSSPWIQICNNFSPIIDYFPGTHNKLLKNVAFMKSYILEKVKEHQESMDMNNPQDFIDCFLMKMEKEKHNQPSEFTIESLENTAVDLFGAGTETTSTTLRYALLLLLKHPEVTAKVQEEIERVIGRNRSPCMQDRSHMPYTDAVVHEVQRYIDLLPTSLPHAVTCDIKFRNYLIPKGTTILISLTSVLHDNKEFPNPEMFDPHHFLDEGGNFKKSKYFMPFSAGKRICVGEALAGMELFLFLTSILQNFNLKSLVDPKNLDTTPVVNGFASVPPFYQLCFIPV
Sequence of FAD-linked sulfhydryl oxidase ALR (P55789 whole entry): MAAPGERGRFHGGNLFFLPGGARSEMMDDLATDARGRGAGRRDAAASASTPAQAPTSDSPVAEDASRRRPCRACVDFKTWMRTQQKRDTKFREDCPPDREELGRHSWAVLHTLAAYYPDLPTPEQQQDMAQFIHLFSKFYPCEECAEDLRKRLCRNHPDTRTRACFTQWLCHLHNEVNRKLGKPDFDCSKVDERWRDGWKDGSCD
Sequence of Genome polyprotein (P29990 2492-3391 limits assumed): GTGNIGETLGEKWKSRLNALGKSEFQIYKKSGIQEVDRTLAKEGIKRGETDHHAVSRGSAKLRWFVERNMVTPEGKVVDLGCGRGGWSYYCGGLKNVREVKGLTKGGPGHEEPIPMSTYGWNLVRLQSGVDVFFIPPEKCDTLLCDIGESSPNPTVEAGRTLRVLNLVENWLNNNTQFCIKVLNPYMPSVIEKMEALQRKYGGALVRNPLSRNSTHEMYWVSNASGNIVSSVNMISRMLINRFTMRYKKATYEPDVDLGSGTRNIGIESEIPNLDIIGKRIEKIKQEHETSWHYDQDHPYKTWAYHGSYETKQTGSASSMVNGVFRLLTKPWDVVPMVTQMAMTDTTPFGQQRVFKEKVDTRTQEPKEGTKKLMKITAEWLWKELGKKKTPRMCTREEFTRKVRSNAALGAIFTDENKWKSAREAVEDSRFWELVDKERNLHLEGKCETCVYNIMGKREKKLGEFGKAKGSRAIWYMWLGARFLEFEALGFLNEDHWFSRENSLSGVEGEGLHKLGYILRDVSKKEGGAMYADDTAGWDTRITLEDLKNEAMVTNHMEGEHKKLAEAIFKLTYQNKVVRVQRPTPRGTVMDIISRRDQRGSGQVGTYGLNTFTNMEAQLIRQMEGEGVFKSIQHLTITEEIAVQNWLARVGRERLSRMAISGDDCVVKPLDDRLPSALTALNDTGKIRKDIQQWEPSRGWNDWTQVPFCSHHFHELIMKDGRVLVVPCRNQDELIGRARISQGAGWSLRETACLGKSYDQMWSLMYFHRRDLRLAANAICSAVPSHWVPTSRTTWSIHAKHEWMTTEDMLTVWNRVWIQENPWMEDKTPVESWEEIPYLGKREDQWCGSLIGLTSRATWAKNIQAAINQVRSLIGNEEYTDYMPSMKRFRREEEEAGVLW
Sequence of Luciferin 4-monooxygenase (P08659 whole entry): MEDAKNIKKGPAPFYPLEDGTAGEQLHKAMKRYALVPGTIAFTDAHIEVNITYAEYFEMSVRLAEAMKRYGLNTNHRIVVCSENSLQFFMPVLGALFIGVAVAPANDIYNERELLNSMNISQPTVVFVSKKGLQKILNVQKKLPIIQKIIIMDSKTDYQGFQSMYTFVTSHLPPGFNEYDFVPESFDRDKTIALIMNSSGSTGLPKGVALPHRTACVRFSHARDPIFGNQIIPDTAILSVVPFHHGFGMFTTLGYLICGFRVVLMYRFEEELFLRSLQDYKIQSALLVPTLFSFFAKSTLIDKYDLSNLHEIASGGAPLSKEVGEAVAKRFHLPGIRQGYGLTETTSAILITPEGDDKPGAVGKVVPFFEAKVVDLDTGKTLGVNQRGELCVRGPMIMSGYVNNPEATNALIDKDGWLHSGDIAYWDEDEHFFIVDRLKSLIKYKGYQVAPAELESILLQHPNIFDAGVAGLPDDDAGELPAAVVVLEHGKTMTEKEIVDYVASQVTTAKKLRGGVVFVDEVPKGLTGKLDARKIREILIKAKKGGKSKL

In the case of `O=C(Cc1ccc(Cl)cc1)Nc1ccc(N2CCN(C(=O)c3ccco3)CC2)cc1`, the AC50 [1] is reported as > 70 µM (inactive), the AC50 [2] is reported as > 70 µM (inactive) and the AC50 [3] is reported as 6.62 µM (active).

In the case of `Cc1ccc(C(=O)Oc2cccc(-n3cnnn3)c2)cc1`, the IC50 [4] is reported as 10.5 µM (not active), the IC50 [5] is reported as 13.7 µM (active) and the AC50 [6] is reported as > 350 µM (inactive).

With `Oc1ccc(/C=N/Nc2cccc(Cl)n2)c(O)c1` the EC50 [7] was 1.66 µM (active), the EC50 [8] was 1.39 µM (active) and the AC50 [6] was 316 µM (active). The IC50 [9] was 29 µM (active).

With `Clc1ccc(N/N=C/c2cccnc2)cc1` the AC50 [10] was 4.65 µM (active), the AC50 [11] was 426 nM (active) and the AC50 [6] was 41.7 µM (active).

With `CCNC(=O)C(=O)N/N=C/c1cc([N+](=O)[O-])ccc1O` the IC50 [12] was 2.44 µM (active).

With `COc1cccc(/C=N/N2C(=O)CSC2=S)c1O` the IC50 [12] was 2.19 µM (active).

In the case of `COc1ccc(OCC(=O)NNC(=O)c2ccc(-c3ccccc3)cc2)cc1`, the IC50 [13] is reported as 7.77 µM (active) and the AC50 [14] is reported as “inconclusive”.

For `C(=C\c1nnc(-c2cccs2)o1)/c1ccccc1`, the AC50 [6] was 50.6 µM (active) and the IC50 [15] was 11.9 µM (active).

With `CC(C)(C)C(=O)N1CCN(c2ccc(NC(=O)c3ccc([N+](=O)[O-])o3)cc2)CC1` the CC50 [16] was 2.96 µM (active), the AC50 [1] was 2.45 µM (active) and the AC50 [2] was > 70 µM (inactive). For the same molecule, the AC50 [3] was 7.74 µM (active).

With `CNc1nc(Cl)nc(NC(C)(C)C)n1` the EC50 [17] was 12.7 µM (active), the EC50 [18] was > 120 µM (not active) and the EC50 [19] was > 120 µM (not active). The AC50 [14] was “inconclusive”.

For `O=C1NC(=O)C(=Cc2ccc3ccccc3c2)C(=O)N1`, the IC50 [20] was 50.8 µM (active).

In the case of `C=CC[C@H](CC(=O)N(CCO)Cc1ccccc1)C(=O)N[C@@H](COC(=O)[C@H](CC=C)CC(=O)OC(C)(C)C)Cc1c[nH]c2ccccc12`, the AC50 [21] is reported as 15.9 µM (active).

In the case of `C[C@@H]1CCCCO[C@@H](CN(C)Cc2ccc(C(F)(F)F)cc2)[C@H](C)CN([C@H](C)CO)C(=O)c2cc(NS(=O)(=O)c3ccc(Cl)cc3)ccc2O1`, the AC50 [21] is reported as 8.48 µM (active).
